# Measurements reported in article PMC11394700, “Characterization of Stealth Liposome-Based Nanoparticles Encapsulating the ACAT1/SOAT1 Inhibitor F26: Efficacy and Toxicity Studies In Vitro and in Wild-Type Mice” (International Journal of Molecular Sciences, 2024).
# Several values for one entry are separate records, joined by “and”; a condition that tells them apart may be missing. Identical values can stand only once. Like-named read-outs stand apart in the source and are kept apart here.
# How the values were obtained:
# MEFs = test: XTT cytotoxicity assay in MEFs; format: cell-based, mouse; details: for Effect on cell viability (XTT): MEFs, concentrations below 50 µM, 24 h
# Protocol: (§1) An XTT cell proliferation assay kit (measures mitochondrial redox activity in metabolically active cells) was purchased from ATCC (Catalog No. 30-1011K, Manassas, VA, USA). Cell toxicity assessment was performed according to the manufacturer’s protocol. MEFs were seeded in a 96-well plate, 2500 cells per well, and cultured in full growth medium for 24 h. […] After the treatment, XTT reagent was added to each well, and the plates were incubated at 37 °C for 4 h. Following the incubation, absorbance was measured by using a BioTek Synergy Neo2 Hybrid Multimode Reader (BioTek, Winooski, VT, USA).
# human ACAT2 = details: cited from earlier work
# [1] = test system: primary mouse neuronal cells; details: concentrations up to 10 µM; cited from earlier work
# [2] = WT mice, individual samples, cited from earlier work
# ACAT1 = target: T1, ACAT1 (Mus musculus, UniProt Q61263); test: ACAT activity by [3H] oleate pulse assay in MEFs; format: cell-based
# T1 construct: MEFs predominantly express ACAT1, not ACAT2; endogenous in cells; host or cells: mouse embryonic fibroblasts (MEFs)
# T1 sequence (Q61263 1-540): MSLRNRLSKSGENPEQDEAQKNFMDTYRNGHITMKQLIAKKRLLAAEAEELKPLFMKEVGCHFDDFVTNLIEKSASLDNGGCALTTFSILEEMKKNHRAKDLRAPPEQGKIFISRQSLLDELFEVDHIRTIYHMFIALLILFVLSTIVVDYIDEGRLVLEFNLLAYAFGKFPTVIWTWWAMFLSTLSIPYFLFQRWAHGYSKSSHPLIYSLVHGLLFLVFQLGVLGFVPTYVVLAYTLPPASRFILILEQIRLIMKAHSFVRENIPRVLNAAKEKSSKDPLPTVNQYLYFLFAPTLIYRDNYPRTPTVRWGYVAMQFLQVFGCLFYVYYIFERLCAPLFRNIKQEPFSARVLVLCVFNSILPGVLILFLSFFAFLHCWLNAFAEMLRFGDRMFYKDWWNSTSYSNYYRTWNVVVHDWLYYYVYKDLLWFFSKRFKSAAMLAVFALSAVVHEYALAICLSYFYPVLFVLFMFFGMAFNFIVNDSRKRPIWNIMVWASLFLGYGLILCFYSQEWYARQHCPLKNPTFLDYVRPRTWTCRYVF
# Protocol: The [^3H] oleate pulse assay was performed as described [76, 77]. […] For the washout assay, cells were washed and incubated with a conditioned drug-free medium for a given amount of time. After the incubation, cells were pulsed with 10 µL of 10 mM [^3H] oleate/BSA (containing 4 µCi) for 2 h in a 37 °C water bath with 5% CO2. At the end of the pulse period, cells were placed on ice, washed three times with cold PBS, and lysed with 0.2 M NaOH. Lysates were aliquoted first for protein measurement and the remaining extract was neutralized to pH 7.0 by adding 3 M HCl and 1 M KH2PO4 at pH 7. Lipids were then extracted with chloroform:methanol (2:1) and water. Samples were vortex-mixed and centrifuged at 500 rpm for 10 min. The top phase was removed, and the bottom phase was blow-dried by nitrogen gas. Dried samples were dissolved in ethyl acetate and spotted on a thin-layer chromatography (TLC) plate (Miles Scientific Silica gel HL, Catalog No. P46911). The solvent system used was petroleum ether:ethyl ether:acetic acid (90:10:1). The cholesteryl ester band with an Rf value at 0.9 was visualized by iodine staining, scraped from the plate, and measured with a scintillation counter.
# [3] = XTT cytotoxicity assay in MEFs; format: cell-based, mouse; details: mouse; MEFs, 150 µM, 24 h; read-out: Cell viability (XTT)
# Protocol: as §1
# [4] = Plasma and brain pharmacokinetics after single IV dose (LC-MS/MS); format: in vivo, mouse; details: WT mice
# Protocol: After intravenous administration of F26, mice were perfused with PBS at scheduled time points. Plasma and brain tissue were collected, flash-frozen in liquid nitrogen, and stored at −80 °C until analysis. […] Calibrator and quality control (QC) samples were prepared in the appropriate C57BL/6 mouse matrix: pooled plasma (anticoagulant: K3-EDTA, Innovative Research) and brain homogenate. The brain tissues were homogenized at 0.1 g/mL in deionized water using stainless-steel beads and a Next Advance Bullet Blender. Samples were cleaned up and analytes were extracted using protein precipitation followed by nitrogen dry down and reconstitution. […] Samples were vortex-mixed for 5 min then centrifuged for 10 min at 21,130× g and a total of 200 µL of clear supernatant was transferred to new tubes and dried under nitrogen in a water bath at 45 °C. The dried residues were reconstituted in 80:20 methanol:water (plasma: 400 µL, brain: 200 µL), vortex-mixed for 15 s and centrifuged at 21,130× g for 5 min. Finally, 100 µL of supernatant was transferred to amber autosampler vials, and 2 µL was injected into the LC-MS/MS system. For the quantitative analysis, each sample was prepared in triplicate and each replicate was injected onto the LC-MS/MS system three times. Liquid chromatography was performed on a Thermo Scientific Vanquish Flex UHPLC system using buffers A = 0.1% formic acid in water and B = 0.1% formic acid in methanol. A Thermo Scientific Accucore C18 50 × 2.1 mm 2.6 µm column fitted with a 10 × 2.1 mm 2.6 µm C18 guard cartridge maintained at 40 °C was used. […] A Thermo Scientific TSQ Quantis triple quadrupole mass spectrometer was operated in positive ion mode with a collision pressure of 1.5 mTorr for quantification. […] The heated electrospray ionization (H-ESI) source was operated with a spray voltage of 3500 V, vaporizer temperature 400 °C, ion transfer tube temperature 300 °C, sheath gas 23, aux gas 12 and ion sweep gas 0.5 (gases are arbitrary units). The quantitative range for F26 was 0.5–500 ng/mL for plasma samples and 0.3–200 ng/mL for brain samples. QC samples were prepared at 1.5, 150, and 400 ng/mL for plasma and at 0.9, 80, and 150 ng/mL for brain.
# [5] = test system: rat liver microsomal ACAT; parameters: method as in earlier work; details: F26 = compound 3 in ref; cited from earlier work
# [6] = 4 h after single IV NP F12511 46 mg/kg
# [7] = 12 h after single IV NP F12511 46 mg/kg
# [8] = 24 h after single IV NP F12511 46 mg/kg
# [9] = 4 h after single IV NP F26 51 mg/kg, individual samples, 51 mg/kg
# [10] = 12 h after single IV NP F26 51 mg/kg, individual samples, 51 mg/kg
# [11] = 24 h after single IV NP F26 51 mg/kg, individual samples, 51 mg/kg
# [12] = 48 h after single IV NP F26 51 mg/kg, individual samples, 51 mg/kg
smiles,measurement,setting,value
"CCCCCCCCCCCCS[C@H](C(=O)Nc1cc(C)c(O)c(C)c1C)c1ccccc1 [F12511, eflucimibe]",Effect on cell viability (XTT),MEFs,neither F12511 nor F26 affected cell viability
same,IC50,human ACAT2,110 nM
same,Toxicity in primary mouse neuronal cells,[1],no detectable toxicity
same,Brain Concentration,[2]; [6],56 ng/g and 83 ng/g and 98 ng/g and 95 ng/g
same,Plasma Concentration,[2]; [6],"11,185 ng/mL and 13,184 ng/mL and 12,883 ng/mL and 31,224 ng/mL"
same,Brain Concentration,[2]; [7],25 ng/g and 26 ng/g
same,Plasma Concentration,[2]; [7],345 ng/mL and 487 ng/mL
same,Brain Concentration,[2]; [8],7 ng/g and 9 ng/g
same,Plasma Concentration,[2]; [8],101 ng/mL and 21 ng/mL
CCCCCCCCCCCCS(=O)(=O)[C@](F)(C(=O)Nc1cc(C)c(O)c(C)c1C)c1ccccc1 [F26],IC50,"ACAT1; [3H] oleate pulse assay, MEFs (predominantly ACAT1), read-out: IC50 against ACAT in MEFs",3 nM
same,Potency as ACAT1 inhibitor compared to F12511 (fold),ACAT1; from IC50 values in MEFs,close to seven-fold
same,"viability at 24 h, 150 µM",[3],81%
same,Concentration required to induce cell toxicity relative to that for ACAT1 inhibition,MEFs; 50 µM or higher vs IC50 in MEFs,over 1000 times
same,Effect on cell viability (XTT),MEFs,neither F12511 nor F26 affected cell viability
same,Brain Concentration,[4]; [9],1148 ng/g
same,Brain-to-Plasma Ratio,[4]; [9],0.069
same,Plasma Concentration,[4]; [9],"16,540 ng/mL"
same,Brain Concentration,[4]; [10],529 ng/g
same,Brain-to-Plasma Ratio,[4]; [10],0.125
same,Plasma Concentration,[4]; [10],4243 ng/mL
same,Brain Concentration,[4]; [11],347 ng/g
same,Brain-to-Plasma Ratio,[4]; [11],0.283
same,Plasma Concentration,[4]; [11],3218 ng/mL and 1226 ng/mL
same,Brain Concentration,[4]; [12],86 ng/g
same,Brain-to-Plasma Ratio,[4]; [12],1.377
same,Plasma Concentration,[4]; [12],62 ng/mL
same,concentration at 4 h,"[4]; C57BL/6, mouse, brain, iv, 51 mg/kg, 4 h after single IV NP F26 51 mg/kg, individual samples, read-out: Brain Concentration",1120 ng/g
same,Kp at 4 h,"[4]; C57BL/6, mouse, brain, iv, 51 mg/kg, 4 h after single IV NP F26 51 mg/kg, individual samples, read-out: Brain-to-Plasma Ratio",0.061
same,concentration at 12 h,"[4]; C57BL/6, mouse, brain, iv, 51 mg/kg, 12 h after single IV NP F26 51 mg/kg, individual samples, read-out: Brain Concentration",671 ng/g
same,Kp at 12 h,"[4]; C57BL/6, mouse, brain, iv, 51 mg/kg, 12 h after single IV NP F26 51 mg/kg, individual samples, read-out: Brain-to-Plasma Ratio",0.147
same,concentration at 24 h,"[4]; C57BL/6, mouse, brain, iv, 51 mg/kg, 24 h after single IV NP F26 51 mg/kg, individual samples",571 ng/g
same,Kp at 24 h,"[4]; C57BL/6, mouse, brain, iv, 51 mg/kg, 24 h after single IV NP F26 51 mg/kg, individual samples, read-out: Brain-to-Plasma Ratio",0.178
same,concentration at 48 h,"[4]; C57BL/6, mouse, brain, iv, 51 mg/kg, 48 h after single IV NP F26 51 mg/kg, individual samples, read-out: Brain Concentration",59 ng/g
same,Kp at 48 h,"[4]; C57BL/6, mouse, brain, iv, 51 mg/kg, 48 h after single IV NP F26 51 mg/kg, individual samples, read-out: Brain-to-Plasma Ratio",1.6
same,Cmax,"[4]; C57BL/6, mouse, brain, single IV NP F26 51 mg/kg, read-out: Cmax in brain",1130 ng/g
same,half-life,"[4]; C57BL/6, mouse, brain, single IV NP F26 51 mg/kg, read-out: T1/2 in brain (converted)",10.5 h
same,Tmax,"[4]; C57BL/6, mouse, brain, single IV NP F26 51 mg/kg, read-out: Tmax in brain",4 h
same,concentration at 4 h,"[4]; C57BL/6, mouse, plasma, iv, 51 mg/kg, 4 h after single IV NP F26 51 mg/kg, individual samples, read-out: Plasma Concentration",18500 ng/mL
same,concentration at 12 h,"[4]; C57BL/6, mouse, plasma, iv, 51 mg/kg, 12 h after single IV NP F26 51 mg/kg, individual samples, read-out: Plasma Concentration",4570 ng/mL
same,concentration at 48 h,"[4]; C57BL/6, mouse, plasma, iv, 51 mg/kg, 48 h after single IV NP F26 51 mg/kg, individual samples, read-out: Plasma Concentration",37 ng/mL
same,Tmax,"[4]; C57BL/6, mouse, plasma, single IV NP F26 51 mg/kg, non-compartmental, n = 2, read-out: Tmax in plasma",4 h
same,AUC(0-t),"[4]; C57BL/6, mouse, plasma, single IV NP F26 51 mg/kg, read-out: AUClast in plasma",229 µg·h/mL
same,Cmax,"[4]; C57BL/6, mouse, plasma, single IV NP F26 51 mg/kg, read-out: Cmax in plasma",17500 ng/mL
same,half-life,"[4]; C57BL/6, mouse, plasma, single IV NP F26 51 mg/kg, read-out: T1/2 in plasma (converted)",4.75 h
same,AUClast in brain,[4]; single IV NP F26 51 mg/kg,"23,398.14 ng.h/g"
same,Potency for inhibiting rat liver microsomal ACAT,[5],more potent than F12511
